Results as given in US4379148A, “Analgesic and anti-inflammatory composition” (priority 1981, dated 1983).
“Also recorded” adds a separate entry of the source.

Experiment: Anti-inflammatory Test by Whittle's Method (acetic acid, dye in peritoneal exudate)
Assay type: in vivo, Male ddY mice
Conditions: Mus musculus, po; read-out: ED30 (dose which decreased the amount of dye of the control group by 30%), drug alone
Experimental: Male ddY mice (18-22 g) fasted for 18 hours were divided into test groups and a control group of 7 or 8 animals each. […] Ten minutes later, 10 ml/kg of 0.7% acetic acid dissolved in physiological saline was injected intraperitoneally into all animals and 20 minutes thereafter the animals were sacrificed. The amount of the dye in the peritoneal exudate was determined at 590 nm by using a spectrophotometer (Hitachi Instrument Co.). The ED30 was defined as the dose which decreased the amount of dye of the control group by 30%, and was determined graphically.

Structure (SMILES) | ED30 [mg/kg]
COc1ccc2c(c1)c(CC(=O)O)c(C)n2C(=O)c1ccc(Cl)cc1 [Indomethacin] | 2.2
CC(C(=O)O)c1cccc(C(=O)c2ccccc2)c1 (centres unmarked) [Ketoprofen] | 3.2
Cc1cccc(Nc2ccccc2C(=O)O)c1C [Mefenamic acid] | 82
COc1ccc2cc([C@H](C)C(=O)O)ccc2c1 [Naproxen] | 12
CCCCC1C(=O)N(c2ccccc2)N(c2ccccc2)C1=O [Phenylbutazone] | 175

Same assay, conditions: p.o.; combined with emorfazone 28.8 mg/kg

Structure (SMILES) | ED30 dose obtained experimentally, with emorfazone 28.8 [mg/kg]
COc1ccc2c(c1)c(CC(=O)O)c(C)n2C(=O)c1ccc(Cl)cc1 [Indomethacin] | 1.6
CC(C(=O)O)c1cccc(C(=O)c2ccccc2)c1 (centres unmarked) [Ketoprofen] | 2.2
Cc1cccc(Nc2ccccc2C(=O)O)c1C [Mefenamic acid] | 60
COc1ccc2cc([C@H](C)C(=O)O)ccc2c1 [Naproxen] | 8.5
CCCCC1C(=O)N(c2ccccc2)N(c2ccccc2)C1=O [Phenylbutazone] | 130

Same assay, conditions: p.o.; combined with emorfazone 28.8 mg/kg; theoretical additive dose

Structure (SMILES) | theoretical additive ED30 dose, with emorfazone 28.8 [mg/kg]
COc1ccc2c(c1)c(CC(=O)O)c(C)n2C(=O)c1ccc(Cl)cc1 [Indomethacin] | 1.65
CC(C(=O)O)c1cccc(C(=O)c2ccccc2)c1 (centres unmarked) [Ketoprofen] | 2.4
Cc1cccc(Nc2ccccc2C(=O)O)c1C [Mefenamic acid] | 61.5
COc1ccc2cc([C@H](C)C(=O)O)ccc2c1 [Naproxen] | 9
CCCCC1C(=O)N(c2ccccc2)N(c2ccccc2)C1=O [Phenylbutazone] | 131.3

Same assay, conditions: p.o.; combined with emorfazone 86 mg/kg

Structure (SMILES) | ED30 dose obtained experimentally, with emorfazone 86 [mg/kg]
COc1ccc2c(c1)c(CC(=O)O)c(C)n2C(=O)c1ccc(Cl)cc1 [Indomethacin] | 1
CC(C(=O)O)c1cccc(C(=O)c2ccccc2)c1 (centres unmarked) [Ketoprofen] | 1.3
Cc1cccc(Nc2ccccc2C(=O)O)c1C [Mefenamic acid] | 41
COc1ccc2cc([C@H](C)C(=O)O)ccc2c1 [Naproxen] | 5.8
CCCCC1C(=O)N(c2ccccc2)N(c2ccccc2)C1=O [Phenylbutazone] | 86

Same assay, conditions: p.o.; combined with emorfazone 86 mg/kg; theoretical additive dose

Structure (SMILES) | theoretical additive ED30 dose, with emorfazone 86 [mg/kg]
COc1ccc2c(c1)c(CC(=O)O)c(C)n2C(=O)c1ccc(Cl)cc1 [Indomethacin] | 1.1
CC(C(=O)O)c1cccc(C(=O)c2ccccc2)c1 (centres unmarked) [Ketoprofen] | 1.6
Cc1cccc(Nc2ccccc2C(=O)O)c1C [Mefenamic acid] | 41
COc1ccc2cc([C@H](C)C(=O)O)ccc2c1 [Naproxen] | 6
CCCCC1C(=O)N(c2ccccc2)N(c2ccccc2)C1=O [Phenylbutazone] | 87.5

Experiment: in vivo
Conditions: mouse, po

Structure (SMILES) | LD50 at 168 h [mg/kg]
COc1ccc2c(c1)c(CC(=O)O)c(C)n2C(=O)c1ccc(Cl)cc1 [Indomethacin] | 11.3
CC(C(=O)O)c1cccc(C(=O)c2ccccc2)c1 (centres unmarked) [Ketoprofen] | 305

Same assay, conditions: mouse, po, LD50 dose obtained experimentally, with emorfazone 240, p.o., combined with emorfazone 240 mg/kg

Structure (SMILES) | LD50 at 168 h [mg/kg]
COc1ccc2c(c1)c(CC(=O)O)c(C)n2C(=O)c1ccc(Cl)cc1 [Indomethacin] | 13
CC(C(=O)O)c1cccc(C(=O)c2ccccc2)c1 (centres unmarked) [Ketoprofen] | 380

Experiment: Analgesic Test by Phenylquinone Writhing Method
Assay type: in vivo, Male ddY mice
Conditions: Mus musculus, po, read-out: ED50 (dose that reduced the number of writhes of the control group by 50%), drug alone
Experimental: Male ddY mice (18-22 g) fasted for 18 hours were divided into test groups and a control group of 7 animals per group. […] The number of writhes was counted for 20 minutes after the p-phenylquinone injection.

Structure (SMILES) | ED50 [mg/kg]
COc1ccc2c(c1)c(CC(=O)O)c(C)n2C(=O)c1ccc(Cl)cc1 [Indomethacin] | 0.52
CC(C(=O)O)c1cccc(C(=O)c2ccccc2)c1 (centres unmarked) [Ketoprofen] | 0.5
Cc1cccc(Nc2ccccc2C(=O)O)c1C [Mefenamic acid] | 36
COc1ccc2cc([C@H](C)C(=O)O)ccc2c1 [Naproxen] | 9
CCCCC1C(=O)N(c2ccccc2)N(c2ccccc2)C1=O [Phenylbutazone] | 66

Same assay, conditions: combination with emorfazone, in words

Structure (SMILES) | combined analgesic effect with emorfazone
COc1ccc2c(c1)c(CC(=O)O)c(C)n2C(=O)c1ccc(Cl)cc1 [Indomethacin] | for the most part a synergistic response
CC(C(=O)O)c1cccc(C(=O)c2ccccc2)c1 (centres unmarked) [Ketoprofen] | for the most part a synergistic response
Cc1cccc(Nc2ccccc2C(=O)O)c1C [Mefenamic acid] | for the most part a synergistic response
COc1ccc2cc([C@H](C)C(=O)O)ccc2c1 [Naproxen] | for the most part a synergistic response
CCCCC1C(=O)N(c2ccccc2)N(c2ccccc2)C1=O [Phenylbutazone] | potentiated by the emorfazone; also recorded: for the most part a synergistic response

Same assay, conditions: p.o.; combined with emorfazone 10 mg/kg (1/4 of its ED50)

Structure (SMILES) | ED50 dose obtained experimentally, with emorfazone 10 [mg/kg]
COc1ccc2c(c1)c(CC(=O)O)c(C)n2C(=O)c1ccc(Cl)cc1 [Indomethacin] | 0.33
CC(C(=O)O)c1cccc(C(=O)c2ccccc2)c1 (centres unmarked) [Ketoprofen] | 0.37
Cc1cccc(Nc2ccccc2C(=O)O)c1C [Mefenamic acid] | 21
COc1ccc2cc([C@H](C)C(=O)O)ccc2c1 [Naproxen] | 6.2
CCCCC1C(=O)N(c2ccccc2)N(c2ccccc2)C1=O [Phenylbutazone] | 32

Same assay, conditions: p.o.; combined with emorfazone 10 mg/kg; theoretical additive dose

Structure (SMILES) | theoretical additive ED50 dose, with emorfazone 10 [mg/kg]
COc1ccc2c(c1)c(CC(=O)O)c(C)n2C(=O)c1ccc(Cl)cc1 [Indomethacin] | 0.39
CC(C(=O)O)c1cccc(C(=O)c2ccccc2)c1 (centres unmarked) [Ketoprofen] | 0.38
Cc1cccc(Nc2ccccc2C(=O)O)c1C [Mefenamic acid] | 27
COc1ccc2cc([C@H](C)C(=O)O)ccc2c1 [Naproxen] | 6.3
CCCCC1C(=O)N(c2ccccc2)N(c2ccccc2)C1=O [Phenylbutazone] | 49.5

Same assay, conditions: p.o.; combined with emorfazone 20 mg/kg (1/2 of its ED50)

Structure (SMILES) | ED50 dose obtained experimentally, with emorfazone 20 [mg/kg]
COc1ccc2c(c1)c(CC(=O)O)c(C)n2C(=O)c1ccc(Cl)cc1 [Indomethacin] | 0.18
CC(C(=O)O)c1cccc(C(=O)c2ccccc2)c1 (centres unmarked) [Ketoprofen] | 0.23
Cc1cccc(Nc2ccccc2C(=O)O)c1C [Mefenamic acid] | 13
COc1ccc2cc([C@H](C)C(=O)O)ccc2c1 [Naproxen] | 4.1
CCCCC1C(=O)N(c2ccccc2)N(c2ccccc2)C1=O [Phenylbutazone] | 16

Same assay, conditions: p.o.; combined with emorfazone 20 mg/kg; theoretical additive dose

Structure (SMILES) | theoretical additive ED50 dose, with emorfazone 20 [mg/kg]
COc1ccc2c(c1)c(CC(=O)O)c(C)n2C(=O)c1ccc(Cl)cc1 [Indomethacin] | 0.26
CC(C(=O)O)c1cccc(C(=O)c2ccccc2)c1 (centres unmarked) [Ketoprofen] | 0.25
Cc1cccc(Nc2ccccc2C(=O)O)c1C [Mefenamic acid] | 18
COc1ccc2cc([C@H](C)C(=O)O)ccc2c1 [Naproxen] | 4.5
CCCCC1C(=O)N(c2ccccc2)N(c2ccccc2)C1=O [Phenylbutazone] | 33

Experiment: Analgesic Test by Randall-Selitto Method (carrageenin inflammatory pain)
Assay type: in vivo, Male Wistar rats
Conditions: Rattus norvegicus, po, read-out: ED50 (dose that increased the mean pain threshold of the control group by 50%), drug alone
Experimental: Male Wistar rats (120-140 g) fasted for 18 hours were divided into test groups and a control group of 5 animals per group. […] The pain threshold was measured after the carrageenin injection at hourly intervals for 3 hours with an analgesy meter (Ugo Basile, Milan).

Structure (SMILES) | ED50 [mg/kg]
COc1ccc2c(c1)c(CC(=O)O)c(C)n2C(=O)c1ccc(Cl)cc1 [Indomethacin] | 6.8
CC(C(=O)O)c1cccc(C(=O)c2ccccc2)c1 (centres unmarked) [Ketoprofen] | 6
Cc1cccc(Nc2ccccc2C(=O)O)c1C [Mefenamic acid] | 120
COc1ccc2cc([C@H](C)C(=O)O)ccc2c1 [Naproxen] | 240
CCCCC1C(=O)N(c2ccccc2)N(c2ccccc2)C1=O [Phenylbutazone] | 125

Same assay, conditions: p.o.; combined with emorfazone 4.5 mg/kg

Structure (SMILES) | ED50 dose obtained experimentally, with emorfazone 4.5 [mg/kg]
COc1ccc2c(c1)c(CC(=O)O)c(C)n2C(=O)c1ccc(Cl)cc1 [Indomethacin] | 0.8
CC(C(=O)O)c1cccc(C(=O)c2ccccc2)c1 (centres unmarked) [Ketoprofen] | 3
Cc1cccc(Nc2ccccc2C(=O)O)c1C [Mefenamic acid] | 58
COc1ccc2cc([C@H](C)C(=O)O)ccc2c1 [Naproxen] | 160
CCCCC1C(=O)N(c2ccccc2)N(c2ccccc2)C1=O [Phenylbutazone] | 22

Same assay, conditions: p.o.; combined with emorfazone 4.5 mg/kg; theoretical additive dose

Structure (SMILES) | theoretical additive ED50 dose, with emorfazone 4.5 [mg/kg]
COc1ccc2c(c1)c(CC(=O)O)c(C)n2C(=O)c1ccc(Cl)cc1 [Indomethacin] | 5.1
CC(C(=O)O)c1cccc(C(=O)c2ccccc2)c1 (centres unmarked) [Ketoprofen] | 4.5
Cc1cccc(Nc2ccccc2C(=O)O)c1C [Mefenamic acid] | 90
COc1ccc2cc([C@H](C)C(=O)O)ccc2c1 [Naproxen] | 180
CCCCC1C(=O)N(c2ccccc2)N(c2ccccc2)C1=O [Phenylbutazone] | 93.8

Same assay, conditions: p.o.; combined with emorfazone 9 mg/kg

Structure (SMILES) | ED50 dose obtained experimentally, with emorfazone 9 [mg/kg]
COc1ccc2c(c1)c(CC(=O)O)c(C)n2C(=O)c1ccc(Cl)cc1 [Indomethacin] | 0.3
CC(C(=O)O)c1cccc(C(=O)c2ccccc2)c1 (centres unmarked) [Ketoprofen] | 1
Cc1cccc(Nc2ccccc2C(=O)O)c1C [Mefenamic acid] | 20
COc1ccc2cc([C@H](C)C(=O)O)ccc2c1 [Naproxen] | 60
CCCCC1C(=O)N(c2ccccc2)N(c2ccccc2)C1=O [Phenylbutazone] | 19

Same assay, conditions: p.o.; combined with emorfazone 9 mg/kg; theoretical additive dose

Structure (SMILES) | theoretical additive ED50 dose, with emorfazone 9 [mg/kg]
COc1ccc2c(c1)c(CC(=O)O)c(C)n2C(=O)c1ccc(Cl)cc1 [Indomethacin] | 3.4
CC(C(=O)O)c1cccc(C(=O)c2ccccc2)c1 (centres unmarked) [Ketoprofen] | 3
Cc1cccc(Nc2ccccc2C(=O)O)c1C [Mefenamic acid] | 60
COc1ccc2cc([C@H](C)C(=O)O)ccc2c1 [Naproxen] | 120
CCCCC1C(=O)N(c2ccccc2)N(c2ccccc2)C1=O [Phenylbutazone] | 62.5

Experiment: not given
Conditions: p.o., combined with emorfazone 240 mg/kg

Structure (SMILES) | theoretical additive LD50 dose, with emorfazone 240 [mg/kg]
COc1ccc2c(c1)c(CC(=O)O)c(C)n2C(=O)c1ccc(Cl)cc1 [Indomethacin] | 8.5
Cc1cccc(Nc2ccccc2C(=O)O)c1C [Mefenamic acid] | 892.5
CCCCC1C(=O)N(c2ccccc2)N(c2ccccc2)C1=O [Phenylbutazone] | 427.5

Experiment: not given
Conditions: combination with 100 mg/kg of emorfazone; in words

Structure (SMILES) | inhibitory effect in combination with emorfazone
COc1ccc2c(c1)c(CC(=O)O)c(C)n2C(=O)c1ccc(Cl)cc1 [Indomethacin] | significantly potentiated
CC(C(=O)O)c1cccc(C(=O)c2ccccc2)c1 (centres unmarked) [Ketoprofen] | significantly potentiated
Cc1cccc(Nc2ccccc2C(=O)O)c1C [Mefenamic acid] | significantly potentiated
COc1ccc2cc([C@H](C)C(=O)O)ccc2c1 [Naproxen] | significantly potentiated
CCCCC1C(=O)N(c2ccccc2)N(c2ccccc2)C1=O [Phenylbutazone] | not essentially affected
